“And” between values parts separate entries of the source, which are not always exact repeats. Identical values can stand only once. Toxic doses and inconclusive results are not listed. Rule for the calls: active = survival T/C of 150% or more; inactive = T/C below 125% in these data.
Test system: P388 leukemia ip, CD2F1 mice, survival T/C
Assay: NCI In Vivo Anticancer Drug Screen. Data for tumor model P388 Leukemia (intraperitoneal) in CD2F1 (CDF1) mice
Details: endpoint: median survival time, higher = longer survival
Outline: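 Mice carrying the transplanted tumor received test compound or vehicle. Survival was recorded in each group, and the value is the treated-group measurement divided by that of the vehicle-treated control group.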

[1] = dose: 50.0 mg/kg/injection, schedule: Q01DX009 (ip), vehicle: saline with Tween-80
[2] = dose: 100.0 mg/kg/injection, schedule: Q01DX009 (ip), vehicle: saline with Tween-80
[3] = dose: 200.0 mg/kg/injection, schedule: Q01DX009 (ip), vehicle: saline with Tween-80
[4] = dose: 50.0 mg/kg/injection, schedule: Q01DX005 (ip), vehicle: Klucel (hydroxypropylcellulose) (HPC)
[5] = dose: 100.0 mg/kg/injection, schedule: Q01DX005 (ip), vehicle: Klucel (hydroxypropylcellulose) (HPC)
[6] = dose: 200.0 mg/kg/injection, schedule: Q01DX005 (ip), vehicle: Klucel (hydroxypropylcellulose) (HPC)
[7] = dose: 100.0 mg/kg/injection, schedule: Q01DX005 (ip), vehicle: saline with Tween-80
[8] = dose: 60.0 mg/kg/injection, schedule: Q01DX005 (ip), vehicle: Klucel (hydroxypropylcellulose) (HPC)
[9] = dose: 120.0 mg/kg/injection, schedule: Q01DX005 (ip), vehicle: Klucel (hydroxypropylcellulose) (HPC)
[10] = dose: 240.0 mg/kg/injection, schedule: Q01DX005 (ip), vehicle: Klucel (hydroxypropylcellulose) (HPC)
[11] = dose: 8.0 mg/kg/injection, schedule: Q01DX009 (ip), vehicle: Klucel (hydroxypropylcellulose) (HPC)
[12] = dose: 16.0 mg/kg/injection, schedule: Q01DX009 (ip), vehicle: Klucel (hydroxypropylcellulose) (HPC)
[13] = dose: 32.0 mg/kg/injection, schedule: Q01DX009 (ip), vehicle: Klucel (hydroxypropylcellulose) (HPC)

Measured: T/C

CC1=NCCCN(CCN(C)C)CCCN=C(C)C2CCCC1[N-]2.[Ni+2].[O-][Cl+3]([O-])([O-])O
inactive: dose: 6.25 mg/kg/injection, schedule: Q01DX001 (ip), vehicle: saline 100 % of control | dose: 12.5 mg/kg/injection, schedule: Q01DX001 (ip), vehicle: saline 100 % of control | dose: 25.0 mg/kg/injection, schedule: Q01DX001 (ip), vehicle: saline 100 % of control and 102 % of control

C=CC(OC(C)=O)OC(C)=O
inactive: dose: 8.0 mg/kg/injection, schedule: Q01DX009 (ip), vehicle: saline 109 % of control | dose: 12.0 mg/kg/injection, schedule: Q01DX009 (ip), vehicle: saline 118 % of control | dose: 18.0 mg/kg/injection, schedule: Q01DX009 (ip), vehicle: saline 109 % of control

COc1cc2c(cc1O)C(=O)CCC=C2
inactive: [1] 103 % of control | [2] 101 % of control | [3] 108 % of control

N#CCC(=O)N/N=C(/CC1(O)C(=O)Nc2c(Cl)ccc(Cl)c21)c1ccco1 (configuration not stated)
inactive: dose: 100.0 mg/kg/injection, schedule: Q04DX002 (ip), vehicle: saline with Tween-80 97 % of control | dose: 200.0 mg/kg/injection, schedule: Q04DX002 (ip), vehicle: saline with Tween-80 89 % of control | dose: 400.0 mg/kg/injection, schedule: Q04DX002 (ip), vehicle: saline with Tween-80 89 % of control

COc1ccc2c(c1)C(=O)CC2
inactive: [4] 106 % of control | [5] 101 % of control | [6] 101 % of control

CC(=O)OC(C(=O)O)N1C(=O)C2C3C=CC(C2C1=O)C1C2C(=O)N(C(OC(C)=O)C(=O)O)C(=O)C2C31 (configuration not stated)
inactive: dose: 25.0 mg/kg/injection, schedule: Q01DX009 (ip), vehicle: water 103 % of control | dose: 50.0 mg/kg/injection, schedule: Q01DX009 (ip), vehicle: water 110 % of control | dose: 100.0 mg/kg/injection, schedule: Q01DX009 (ip), vehicle: water 110 % of control and 113 % of control and 123 % of control

CCCOc1ccc(C(=O)NCc2cccnc2)cc1C(=O)NCc1cccnc1
inactive: dose: 50.0 mg/kg/injection, schedule: Q01DX005 (ip), vehicle: saline with Tween-80 100 % of control | [7] 99 % of control | dose: 200.0 mg/kg/injection, schedule: Q01DX005 (ip), vehicle: saline with Tween-80 100 % of control

Clc1ccc(Nc2c3ccccc3nc3c2cnn3-c2ccccc2)cc1
inactive: [8] 89 % of control | [9] 99 % of control and 93 % of control | [10] 100 % of control and 90 % of control

Cc1ccc2c(c1)sc1n[nH]c(=S)n12
inactive: dose: 50.0 mg/kg/injection, schedule: Q01DX009 (ip), vehicle: Klucel (hydroxypropylcellulose) (HPC) 100 % of control | dose: 100.0 mg/kg/injection, schedule: Q01DX009 (ip), vehicle: Klucel (hydroxypropylcellulose) (HPC) 100 % of control | dose: 200.0 mg/kg/injection, schedule: Q01DX009 (ip), vehicle: Klucel (hydroxypropylcellulose) (HPC) 100 % of control

CCCCCCCCCCCCCCCC[N+]1(CC)CCOCC1 (tested in a mixture with another compound)
inactive: dose: 3.13 mg/kg/injection, schedule: Q01DX009 (ip), vehicle: Klucel (hydroxypropylcellulose) (HPC) 96 % of control | dose: 6.25 mg/kg/injection, schedule: Q01DX009 (ip), vehicle: Klucel (hydroxypropylcellulose) (HPC) 113 % of control | dose: 12.5 mg/kg/injection, schedule: Q01DX009 (ip), vehicle: Klucel (hydroxypropylcellulose) (HPC) 115 % of control

CON/C=C(C#N)/C=C/C=Nc1ccc(S(=O)(=O)Nc2onc(C)c2C)cc1
inactive: [1] 100 % of control | [2] 92 % of control | [3] 98 % of control

CCCCNP1(NCCCC)=NP(NCCCC)(NCCCC)=NP(NCCCC)(NCCCC)=NP(NCCCC)(NCCCC)=N1
inactive: dose: 12.5 mg/kg/injection, schedule: Q01DX005 (ip), vehicle: saline with Tween-80 106 % of control | dose: 25.0 mg/kg/injection, schedule: Q01DX005 (ip), vehicle: saline with Tween-80 116 % of control | [7] 88 % of control

C1=C2NNC(c3ccccc3)=C(c3ccccc3)C2=CCC1 (tested in a mixture with another compound)
inactive: dose: 60.0 mg/kg/injection, schedule: Q01DX005 (ip), vehicle: saline with Tween-80 96 % of control | dose: 120.0 mg/kg/injection, schedule: Q01DX005 (ip), vehicle: saline with Tween-80 92 % of control | dose: 240.0 mg/kg/injection, schedule: Q01DX005 (ip), vehicle: saline with Tween-80 91 % of control

S=c1[nH]nc(Cc2cccc3ccccc23)n1-c1ccccc1
inactive: [4] 97 % of control | [5] 99 % of control | [6] 90 % of control

Nc1ccc2cc(Cl)ccc2c1
inactive: dose: 16.5 mg/kg/injection, schedule: Q01DX009 (ip), vehicle: saline with Tween-80 90 % of control

CCN(CC)CCOc1cccc(NC(=O)CN(CC)CC)c1
inactive: dose: 15.0 mg/kg/injection, schedule: Q01DX005 (ip), vehicle: Klucel (hydroxypropylcellulose) (HPC) 106 % of control | dose: 30.0 mg/kg/injection, schedule: Q01DX005 (ip), vehicle: Klucel (hydroxypropylcellulose) (HPC) 103 % of control | [8] 105 % of control and 96 % of control

CCOC1OCN(c2ccccc2)CC1(C)C (configuration not stated)
inactive: [1] 115 % of control | [2] 114 % of control | [3] 108 % of control | dose: 400.0 mg/kg/injection, schedule: Q01DX009 (ip), vehicle: saline with Tween-80 117 % of control

CCCCCCCCCCCCCCCCN(C)CCO
inactive: dose: 12.5 mg/kg/injection, schedule: Q01DX009 (ip), vehicle: saline with Tween-80 104 % of control | dose: 25.0 mg/kg/injection, schedule: Q01DX009 (ip), vehicle: saline with Tween-80 106 % of control | [1] 99 % of control

CC(C)=CCc1cc(C2COc3cc4c(c(O)c3C2=O)C=CC(C)(C)O4)c(O)cc1O (configuration not stated)
inactive: [11] 98 % of control | [12] 101 % of control | [13] 100 % of control | dose: 64.0 mg/kg/injection, schedule: Q01DX009 (ip), vehicle: Klucel (hydroxypropylcellulose) (HPC) 98 % of control

COC(=O)N1Cc2cc3ccccc3nc2C1C (configuration not stated)
inactive: [8] 101 % of control | [9] 104 % of control | [10] 109 % of control

CC1CCC(C(=O)C(Cl)Cc2ccccc2)CC1 (configuration not stated)
inactive: [4] 88 % of control | [5] 92 % of control

COc1cc(Br)cc(C=O)c1OC
inactive: dose: 12.5 mg/kg/injection, schedule: Q01DX009 (ip), vehicle: other 98 % of control | dose: 25.0 mg/kg/injection, schedule: Q01DX009 (ip), vehicle: other 98 % of control | dose: 50.0 mg/kg/injection, schedule: Q01DX009 (ip), vehicle: other 99 % of control | dose: 100.0 mg/kg/injection, schedule: Q01DX009 (ip), vehicle: other 98 % of control | dose: 200.0 mg/kg/injection, schedule: Q01DX009 (ip), vehicle: other 102 % of control | dose: 400.0 mg/kg/injection, schedule: Q01DX009 (ip), vehicle: other 114 % of control

C/C1=C\CC(O)/C(C)=C/CC2=CCC(C(C)C)C2(C)CC1 (configuration not stated)
inactive: dose: 4.0 mg/kg/injection, schedule: Q01DX009 (ip), vehicle: Klucel (hydroxypropylcellulose) (HPC) 101 % of control | [11] 101 % of control | [12] 102 % of control | [13] 102 % of control

Reference: PubChem BioAssay AID330 (DTP/NCI, 2004)
